Results on eleven compounds are retold here after ChEMBL document CHEMBL1201862, “PubChem BioAssay data set” (2004).

Among the test systems are TK-10; UACC-62; UACC-257; NCI/ADR-RES; SN12C; UO-31; NCI-H23; 786-0; A549; K562; RPMI-8226; HOP-62; LOX IMVI; ACHN; Malme-3M; HL-60; IGROV-1; CAKI-1; M14; NCI-H522.
What all share (test): NCI anticancer screen, dose series, 48 h

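Values below derive from 48-hour exposures of cells grown in 96-well plates, with endpoints linearly interpolated between the two concentrations bracketing the appropriate inhibition level. Abbreviation: GI50, concentration required for 50% inhibition of growth.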 Activity calls are given as the source filed them. Cut-off read from the data, not from the text of the source: active = GI50 up to about 1.1 µM and inactive = higher.

As for `CCOC(=O)NC(C(F)(F)F)(C(F)(F)F)P(=O)(OC(C)C)OC(C)C`, the GI50 in the test on TK-10, in the test on UACC-62, with UACC-257, in the test with NCI/ADR-RES, in the test on SN12C and in the test with UO-31 was > 100 µM (inactive) in each case. For the same compound, the GI50 in the test on NCI-H23, with 786-0, in the test on A549, with K562, with RPMI-8226 and in the test on HOP-62 was > 100 µM (inactive) in each case. In addition, the GI50 in the test with LOX IMVI, with ACHN, in the test on Malme-3M, in the test with HL-60 and with IGROV-1 was > 100 µM (inactive) throughout.
Take `CN(C)CCN1C(=O)c2ccccc2C1(O)c1ccc(Cl)cc1` (stereo not given): the GI50 in the test on TK-10 is > 100 µM (inactive); with UACC-62 it was 32.7 µM (inactive); with UACC-257 it was 24.8 µM (inactive); with NCI/ADR-RES it was 97.1 µM (inactive); in the test with CAKI-1 it was 40.8 µM (inactive); in the test on SN12C it was > 100 µM (inactive). Also, the GI50 in the test on UO-31 is 24.3 µM (inactive); in the test on NCI-H23, > 100 µM (inactive); in the test on 786-0, > 100 µM (inactive); in the test on A549, > 100 µM (inactive); in the test with K562, > 100 µM (inactive); in the test on M14 it was 42.9 µM (inactive). The GI50 with RPMI-8226 was > 100 µM (inactive); in the test with HOP-62, > 100 µM (inactive); in the test on ACHN, > 100 µM (inactive); in the test with Malme-3M it was 28.6 µM (inactive); in the test with HL-60, 26.4 µM (inactive); with IGROV-1, 39.3 µM (inactive).
Take `Nc1c(C(=O)c2ccccc2)nnc2ccccc12`: the GI50 in the test on TK-10 is 24.3 µM (inactive); with UACC-62 it was 17.5 µM (inactive); with UACC-257, 28.2 µM (inactive); with NCI/ADR-RES, 21.5 µM (inactive); in the test on CAKI-1, 29.5 µM (inactive); with UO-31 it was 24.7 µM (inactive). Moreover, the GI50 in the test with NCI-H23 is 24.8 µM (inactive); with 786-0, 30.5 µM (inactive); in the test with A549, 37.3 µM (inactive); in the test with K562 it was 30.8 µM (inactive); with M14 it was 39.3 µM (inactive); with RPMI-8226, 33.7 µM (inactive). Also, the GI50 in the test on HOP-62 is 24.5 µM (inactive); in the test on LOX IMVI it was 32.4 µM (inactive); with ACHN, 24.8 µM (inactive); in the test on Malme-3M, 27 µM (inactive); in the test on HL-60 it was < 0.01 µM (active); with IGROV-1, 26.6 µM (inactive).
Take `CC1(C)CC(C2=NCCO2)CC(C)(C)N1`: the GI50 with TK-10, in the test on UACC-62, in the test with UACC-257, in the test with NCI/ADR-RES, in the test on CAKI-1 and in the test on SN12C was > 100 µM (inactive) each time. Further, the GI50 in the test on UO-31, in the test with NCI-H23, in the test on 786-0, in the test on A549, in the test with K562 and in the test with M14 was > 100 µM (inactive) each time. Further, the GI50 with RPMI-8226, in the test with HOP-62, in the test on LOX IMVI, with ACHN, in the test with Malme-3M and with HL-60 was > 100 µM (inactive) throughout. The GI50 in the test with IGROV-1 is > 100 µM (inactive).
In the case of `CCCCn1c(-c2ccc([N+](=O)[O-])cc2)cs/c1=N/N=C1\C(=O)Nc2ccc(Br)cc21`, the GI50 in the test with TK-10 is 12.3 µM (inactive); with UACC-62, 19.6 µM (inactive); with UACC-257, 18.2 µM (inactive); in the test with NCI/ADR-RES it was 17.1 µM (inactive); in the test on CAKI-1, 21.4 µM (inactive); with NCI-H522, 14.2 µM (inactive). Further, the GI50 with SN12C was 3.78 µM (inactive); with UO-31, 18.6 µM (inactive); in the test on NCI-H23, 16.6 µM (inactive); with 786-0 it was 11.8 µM (inactive); in the test with A549, 15.9 µM (inactive); in the test on K562 it was 15.7 µM (inactive). The GI50 was 12.1 µM (inactive) in the test with M14; 15.7 µM (inactive) with HOP-62; 18.9 µM (inactive) with LOX IMVI; 12.9 µM (inactive) in the test on ACHN; 28.3 µM (inactive) in the test with Malme-3M; 16.9 µM (inactive) in the test on HL-60. For the same compound, in the test with IGROV-1, the GI50 is 19.1 µM (inactive).
On to `COc1ccc(/C=N/NC(=O)c2ccc(O)c(CN(C)C)c2)cc1`, for which the GI50 was > 100 µM (inactive) in the test with TK-10; > 100 µM (inactive) in the test with UACC-62; > 100 µM (inactive) with UACC-257; > 100 µM (inactive) with NCI/ADR-RES; > 100 µM (inactive) in the test on CAKI-1; 10.5 µM (inactive) with NCI-H522. For the same compound, the GI50 in the test with SN12C, in the test on UO-31, in the test on NCI-H23, with 786-0, in the test on A549 and in the test on K562 was > 100 µM (inactive) in each case. Also, the GI50 in the test on M14, with HOP-62, in the test on LOX IMVI, in the test with ACHN, in the test with Malme-3M and in the test with HL-60 was > 100 µM (inactive) in each case. Also, in the test on IGROV-1, the GI50 is > 100 µM (inactive).
As for `COc1ccc(/N=C2/SC(=N/N=c3\sc4ccccc4n3C)S/C2=N/c2ccc(OC)cc2)cc1`, the GI50 in the test on TK-10 was > 100 µM (inactive); in the test on UACC-62, 37.6 µM (inactive); in the test on UACC-257, > 100 µM (inactive); in the test with NCI/ADR-RES, > 100 µM (inactive); in the test with CAKI-1, > 100 µM (inactive); with NCI-H522, 70.8 µM (inactive). In addition, the GI50 is > 100 µM (inactive) in the test with SN12C; > 100 µM (inactive) in the test with UO-31; 41.9 µM (inactive) in the test on NCI-H23; 47.3 µM (inactive) in the test on 786-0; 20.4 µM (inactive) with A549; 2.92 µM (inactive) in the test with K562. In addition, the GI50 in the test with M14 was > 100 µM (inactive); with RPMI-8226 it was > 100 µM (inactive); in the test with HOP-62, 31.6 µM (inactive); with ACHN, 36.8 µM (inactive); in the test on Malme-3M it was > 100 µM (inactive); in the test on IGROV-1, > 100 µM (inactive).
With `O=c1[nH]cnc2c1ncn2[C@H]1CO[C@@H](CO)[C@@H]1O`, the GI50 in the test on TK-10, in the test with UACC-62, with UACC-257, in the test with NCI/ADR-RES, in the test with CAKI-1 and with NCI-H522 was > 100 µM (inactive) in each case. Besides, the GI50 in the test on SN12C, in the test with UO-31, in the test on NCI-H23, in the test with 786-0, with K562 and in the test on RPMI-8226 was > 100 µM (inactive) each time. The GI50 with HOP-62, with LOX IMVI, in the test on ACHN, in the test with Malme-3M and in the test with IGROV-1 was > 100 µM (inactive) each time.
For `Cc1cc(C)c2c(n1)S(=O)(=O)N(CCCN1CCN(c3cccc(C(F)(F)F)c3)CC1)C(C(=O)c1ccc(Cl)cc1)=C2O`, the GI50 in the test with TK-10 is 3.01 µM (inactive); with UACC-62 it was 4.74 µM (inactive); with UACC-257, 2.31 µM (inactive); in the test with NCI/ADR-RES it was 2.12 µM (inactive); in the test with CAKI-1, 1.11 µM (active); with NCI-H522, 2.7 µM (inactive). Besides, the GI50 in the test on SN12C was 2.02 µM (inactive); in the test on UO-31, 1.33 µM (inactive); in the test on NCI-H23, 2.47 µM (inactive); in the test with 786-0 it was 2.47 µM (inactive); with A549 it was 2.74 µM (inactive); in the test with K562, 2.2 µM (inactive). Further, the GI50 in the test on M14 is 2.65 µM (inactive); in the test on HOP-62, 5.81 µM (inactive); in the test on LOX IMVI, 0.515 µM (active); in the test with ACHN it was 3.48 µM (inactive); in the test with Malme-3M, 3.27 µM (inactive); in the test with HL-60, 1.87 µM (inactive). Also, in the test with IGROV-1, the GI50 is 3.26 µM (inactive).
`C=C1C(O)CC[C@]2(C)C1C1OC(C)(C)O[C@]13CC(=O)C(C)=C([C@H]1OC(C)(C)OC12)C3(C)C` (stereo not given in full): the GI50 in the test on TK-10, in the test with UACC-62, in the test on UACC-257, in the test with NCI/ADR-RES, with CAKI-1 and with SN12C was > 100 µM (inactive) in each case. Besides, the GI50 was > 100 µM (inactive) in the test on UO-31; > 100 µM (inactive) with NCI-H23; > 100 µM (inactive) in the test with 786-0; > 100 µM (inactive) in the test with A549; 90.2 µM (inactive) in the test with K562; 96.8 µM (inactive) in the test on RPMI-8226. Moreover, the GI50 in the test on HOP-62 is > 100 µM (inactive); in the test on LOX IMVI, > 100 µM (inactive); in the test on ACHN it was 92 µM (inactive); with Malme-3M, > 100 µM (inactive); in the test with HL-60 it was > 100 µM (inactive); with IGROV-1 it was > 100 µM (inactive).
As for `Cc1ccc(S(=O)(=O)n2cc(-c3cc(C(F)(F)F)ccn3)c3cc(Br)ccc32)cc1`, the GI50 was 18.7 µM (inactive) with TK-10; 16.1 µM (inactive) in the test on UACC-62; 27 µM (inactive) with UACC-257; 34.2 µM (inactive) with NCI/ADR-RES; 16.3 µM (inactive) with CAKI-1; 28.3 µM (inactive) with SN12C. Also, the GI50 in the test with UO-31 is 11.2 µM (inactive); with NCI-H23, 14.5 µM (inactive); with 786-0, 13.9 µM (inactive); in the test with A549, 21.1 µM (inactive); in the test with K562 it was > 100 µM (inactive); in the test with M14, 27.7 µM (inactive). Further, the GI50 in the test with RPMI-8226 was 69.2 µM (inactive); in the test on HOP-62, 11.8 µM (inactive); in the test on LOX IMVI, 28.1 µM (inactive); in the test with ACHN, 11.4 µM (inactive); in the test on Malme-3M, 20.7 µM (inactive); in the test with HL-60, > 100 µM (inactive).
